# Reference: patent US20250034165A1, “COMPOUND CONTAINING CYCLOALKYL OR HALOALKYL” (CHIA TAI TIANQING PHARMACEUTICAL GROUP CO., LTD., priority 2021, published 2025)
# Where two headings read alike, the source gives them in different places.
# Tests used:
# [1] = biological target: EGFR (d746-750 (d19)/T790M) (Homo sapiens (Human), UniProt P00533, DEL746-750/T790M); assay: Inhibitory activity for EGFR (d746-750 (d19)/T790M) kinase; format: biochemical; settings: ATP 5 μM
# Method in brief: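 Recombinant EGFR d746-750/T790M (0.003 ng/μL final) preincubated 30 min with compound (10 to 0.0024 nM, 4-fold steps), then 5 μM ATP and 0.1 μM ULight-poly GT added for 2 h at room temperature. EDTA stop, Eu-anti-phosphotyrosine TR-FRET read (665 nm); IC50 by four-parameter fit.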
# [2] = In vitro stability in liver microsomes; format: in vitro ADME; settings: Human liver microsome
# Method: 300 μL of the final incubation system contains 30 μL of liver microsomes (protein concentration: 0.15 mg/mL), 30 μL of NADPH+MgCl2, 3 μL of the test compound (in acetonitrile), and 237 μL of PBS buffer (pH 7.4). The proportion of the organic solvent (acetonitrile) was 1%. Samples were prepared in duplicate of 0.3 mL for each species (e.g., human or mouse liver microsomes). Tubes each containing 270 μL of a mixed solution of substrate and enzyme […] were pre-incubated at 37° C. for 5 min. 30 μL of NADPH+MgCl2 was added and the mixture was mixed. 50 μL of the mixture was taken at 0 min, 15 min, 30 min, and 60 min, and 300 μL of glacial acetonitrile containing an internal standard was added to terminate the reaction.
# 50 μL of the incubated sample was added with 300 μL of glacial acetonitrile containing an internal standard (20 ng/mL diazepam) for precipitation. The mixture was vortexed for 5 min, and centrifuged (12,000 rpm, 4° C.) for 10 min. 75 μL of supernatant was taken and diluted with 75 μL of ultrapure water. After being homogeneously mixed, 0.5 μL of the resulting sample was injected for analysis.
# [3] = biological target: EGFR (d746-750/T790M/C797S) (Homo sapiens (Human), UniProt P00533, C797S/DEL746-750/T790M); assay: Inhibitory activity for EGFR (d746-750/T790M/C797S) kinase; format: biochemical; settings: ATP 5 μM; read-out: EGFR(d19/T790M/C797S) (IC50)
# Method in brief: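 EGFR d746-750/T790M/C797S (0.03 ng/μL final) preincubated 30 min with compound (10 nM–0.0024 nM, 4-fold, 7 points). Reaction with 5 μM ATP and 0.1 μM ULight-poly GT, 2 h at room temperature; EDTA stop, Eu-anti-phosphotyrosine TR-FRET read at 665 nm, IC50 by four-parameter fit.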
# [4] = In vivo pharmacokinetics in ICR mice; settings: for MRT last: read-out: MRT(0-t); for half-life: read-out: T½ (converted); for bioavailability: 10 mg/kg
# Method in brief: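 ICR mice (18–20 g, 9 per group, fasted 12 h) received 10 mg/kg of compound intragastrically. Orbital blood was taken from 0 min to 24 h and EDTA-K2 plasma was prepared. Plasma was precipitated with acetonitrile containing diazepam as internal standard and analysed by LC/MS/MS.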
# [5] = mouse, plasma, 1 mg/kg, IV, read-out: AUC(0-t)
# [6] = mouse, plasma, PO, 10 mg/kg intragastric
# [7] = mouse, plasma, PO, 10 mg/kg intragastric, read-out: AUC(0-t)
# [8] = mouse, plasma, PO, 10 mg/kg intragastric, read-out: Cmax
# [9] = mouse, plasma, PO, 10 mg/kg intragastric, read-out: Tmax
# Sequence of EGFR (d746-750 (d19)/T790M) (P00533 other isoform, or with tags, fused parts or gaps T790M/del 1-668/del 746-750 limits assumed): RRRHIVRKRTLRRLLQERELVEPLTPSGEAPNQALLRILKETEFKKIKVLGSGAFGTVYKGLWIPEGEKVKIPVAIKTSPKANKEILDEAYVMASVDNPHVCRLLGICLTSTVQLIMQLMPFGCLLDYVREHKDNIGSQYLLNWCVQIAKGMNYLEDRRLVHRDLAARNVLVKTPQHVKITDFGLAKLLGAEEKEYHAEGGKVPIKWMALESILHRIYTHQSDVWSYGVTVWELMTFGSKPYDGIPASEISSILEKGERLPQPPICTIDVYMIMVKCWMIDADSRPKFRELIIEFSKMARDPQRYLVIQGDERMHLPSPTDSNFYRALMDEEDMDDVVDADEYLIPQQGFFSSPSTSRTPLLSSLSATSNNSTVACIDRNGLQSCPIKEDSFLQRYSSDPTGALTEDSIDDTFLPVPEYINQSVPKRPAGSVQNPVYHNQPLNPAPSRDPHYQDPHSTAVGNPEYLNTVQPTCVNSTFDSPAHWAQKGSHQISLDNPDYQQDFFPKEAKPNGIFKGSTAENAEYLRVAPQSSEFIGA
# Sequence of EGFR (d746-750/T790M/C797S) (P00533 other isoform, or with tags, fused parts or gaps T790M/C797S/del 1-694/del 746-750 limits assumed): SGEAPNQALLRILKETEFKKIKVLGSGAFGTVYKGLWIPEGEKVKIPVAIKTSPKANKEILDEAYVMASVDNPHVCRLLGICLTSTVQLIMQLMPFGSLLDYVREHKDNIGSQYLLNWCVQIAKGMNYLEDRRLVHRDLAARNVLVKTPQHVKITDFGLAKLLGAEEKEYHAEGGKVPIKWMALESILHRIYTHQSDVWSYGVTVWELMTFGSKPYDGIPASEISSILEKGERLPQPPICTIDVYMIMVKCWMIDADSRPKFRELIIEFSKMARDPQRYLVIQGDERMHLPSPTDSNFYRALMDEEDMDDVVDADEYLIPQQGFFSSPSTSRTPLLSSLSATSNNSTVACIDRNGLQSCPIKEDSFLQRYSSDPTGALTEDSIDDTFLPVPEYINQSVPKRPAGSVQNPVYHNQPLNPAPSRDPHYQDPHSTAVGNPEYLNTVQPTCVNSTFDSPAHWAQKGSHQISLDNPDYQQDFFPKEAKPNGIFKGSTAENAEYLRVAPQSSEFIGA
smiles,measurement,setting,value
Cc1cc2cc(n1)-c1cnn(C)c1OCCC[C@@H](C1CC1)CN1/C(=N/C2=O)Nc2cc(N[C@H]3CC[C@@H](N(C)C)CC3)ccc21 [Example 26],IC50,[1],0.011 nM
same,"Stability in liver microsomes (residual %, T = 60 min)",[2],98.30%
same,IC50,[3],0.017 nM
Cc1cc2cc(n1)-c1cnn(C)c1OCCC[C@@H](C1CC1)CN1/C(=N/C2=O)Nc2cc(N[C@H]3CC[C@H](N(C)C)CC3)ccc21 [Example 25],IC50,[1],0.011 nM
same,"Stability in liver microsomes (residual %, T = 60 min)",[2],103.07%
same,IC50,[3],0.014 nM
Cc1cc2cc(n1)-c1cnn(C)c1OC[C@H](C1CC1)CCCn1c(nc3cc(NC4COC4)ccc31)NC2=O [Example 60],IC50,[1],0.039 nM
same,IC50,[3],0.07 nM
Cc1cc2cc(n1)-c1cnn(C)c1OCCC[C@@H](C1CC1)CN1/C(=N/C2=O)Nc2cc(NC3(C(F)(F)F)COC3)ccc21 [Example 88],IC50,[1],0.044 nM
same,IC50,[3],0.181 nM
Cc1cc2cc(n1)-c1cnn(C)c1OCCC[C@@H](C1CC1)CN1/C(=N/C2=O)Nc2ccc(C=CCCN(C)C)cc21 [Example 24],IC50,[1],0.016 nM
same,IC50,[3],0.021 nM
Cc1cc2cc(n1)-c1cnn(C)c1OCCC[C@@H](C1CC1)CN1/C(=N/C2=O)Nc2cc(N[C@H](C)C3COC3)ccc21 [Example 39],IC50,[1],0.012 nM
same,AUC(0-t),[4]; IV,261 ng·h/mL
same,AUC(0-∞),[4]; IV,262 ng·h/mL
same,CLz,[4]; IV,63.5 mL/min/kg
same,MRT(0-t),[4]; IV,0.61 h
same,T½,[4]; IV,1.74 h
same,F (%),[4]; PO vs IV,118.35%
same,AUC(0-t),"[4]; PO, 10 mg/kg intragastric",3093 ng·h/mL
same,AUC(0-∞),"[4]; PO, 10 mg/kg intragastric",3096 ng·h/mL
same,Cmax,"[4]; PO, 10 mg/kg intragastric",488 ng/mL
same,MRT(0-t),"[4]; PO, 10 mg/kg intragastric",3.84 h
same,Tmax,"[4]; PO, 10 mg/kg intragastric",0.50 h
same,T½,"[4]; PO, 10 mg/kg intragastric",2.33 h
same,IC50,[3],0.024 nM
C[C@H](Nc1ccc2c(c1)N/C1=N\C(=O)c3cc(F)nc(c3)-c3cnn(C)c3OCCC[C@@H](C3CC3)CN12)C(F)(F)F [Example 9],IC50,[1],0.28 nM
same,"Stability in liver microsomes (residual %, T = 60 min)",[2],59.54%
same,IC50,[3],0.45 nM
Cc1cc2cc(n1)-c1cnn(C)c1OCCC[C@@H](C1CC1)CN1/C(=N/C2=O)Nc2cc(NC3(C)COC3)ccc21 [Example 29],IC50,[1],0.0089 nM
same,CLz,[4]; IV,19.7 mL/min/kg
same,AUC(0-inf),"[4]; mouse, plasma, 1 mg/kg, IV",850 ng·h/mL
same,AUC(0-t),[4]; [5],845 ng·h/mL
same,MRT last,"[4]; mouse, plasma, 1 mg/kg, IV",1.1 h
same,half-life,"[4]; mouse, plasma, 1 mg/kg, IV",1.65 h
same,bioavailability,"[4]; mouse, plasma, PO vs IV",42.9%
same,AUC(0-inf),[4]; [6],3640 ng·h/mL
same,AUC(0-t),[4]; [7],3620 ng·h/mL
same,Cmax,[4]; [8],553 ng/mL
same,MRT last,[4]; [6],5.99 h
same,Tmax,[4]; [9],0.5 h
same,half-life,[4]; [6],3.06 h
same,IC50,[3],0.015 nM
Cc1cc2cc(n1)-c1cnn(C)c1OC[C@H](C1CC1)CCCn1c(nc3ccc(NC4COC4)cc31)NC2=O [Example 59],IC50,[1],0.04 nM
same,IC50,[3],0.074 nM
Cc1cc2cc(n1)-c1cnn(C)c1OCCC[C@@H](C1CC1)CN1/C(=N/C2=O)Nc2ccc(NCCN(C)C)cc21 [Example 28],IC50,[1],0.0072 nM
same,CLz,[4]; IV,48.8 mL/min/kg
same,AUC(0-inf),"[4]; mouse, plasma, 1 mg/kg, IV",341 ng·h/mL
same,AUC(0-t),[4]; [5],336 ng·h/mL
same,MRT last,"[4]; mouse, plasma, 1 mg/kg, IV",3.96 h
same,half-life,"[4]; mouse, plasma, 1 mg/kg, IV",4.64 h
same,bioavailability,"[4]; mouse, plasma, PO vs IV",27.9%
same,AUC(0-inf),[4]; [6],965 ng·h/mL
same,AUC(0-t),[4]; [7],938 ng·h/mL
same,Cmax,[4]; [8],74.5 ng/mL
same,MRT last,[4]; [6],7.72 h
same,Tmax,[4]; [9],6 h
same,half-life,[4]; [6],4.29 h
same,IC50,[3],0.011 nM
